Data: PMC7156458, “Synthetic biology based construction of biological activity-related library of fungal decalin-containing diterpenoid pyrones” (Nature Communications, 2020)

Biological target: Aβ42 (Homo sapiens, UniProt P05067)
Assay: Th-T (thioflavin-T) assay of Aβ42 aggregation
Type: biochemical
Details: for Th-T fluorescence of Aβ42 (sheet Fig. 7a), mean of three wells: head suffix _50 (concentration 50); for Th-T assay plate reading, mean of three wells (Supplementary Fig. 47): source data, Ab alone and No Ab as controls; for Th-T fluorescence, mean of three wells: Supplementary Fig. 47 source data

Aβ42, sequence (P05067 672-713): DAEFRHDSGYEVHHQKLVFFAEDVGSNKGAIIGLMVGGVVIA

C=C1CC[C@@H]2[C@](C)(CC[C@H]3O[C@H](C=C(C)C)C[C@@]23C)[C@@H]1Cc1c(OC)oc(CO)c(C(=O)OC)c1=O [Compound 21]
Th-T fluorescence of Aβ42 (sheet Fig. 7a), mean of three wells (reading M73): 0.2746 | Th-T fluorescence of Aβ42 (sheet Fig. 7a), mean of three wells (reading M74): 0.2806 | Th-T fluorescence of Aβ42 (sheet Fig. 7a), mean of three wells (reading M75): 0.286 | Th-T fluorescence of Aβ42 (sheet Fig. 7a), mean of three wells (reading M76): 0.2937 | Th-T fluorescence of Aβ42 (sheet Fig. 7a), mean of three wells (reading M77): 0.3019 | Th-T fluorescence of Aβ42 (sheet Fig. 7a), mean of three wells (reading M78): 0.3119 | Th-T fluorescence of Aβ42 (sheet Fig. 7a), mean of three wells (reading M79): 0.3191 | Th-T fluorescence of Aβ42 (sheet Fig. 7a), mean of three wells (reading M80): 0.3266 | Th-T fluorescence of Aβ42 (sheet Fig. 7a), mean of three wells (reading M81): 0.339 | Th-T fluorescence of Aβ42 (sheet Fig. 7a), mean of three wells (reading M82): 0.3487 | Th-T fluorescence of Aβ42 (sheet Fig. 7a), mean of three wells (reading M83): 0.3612 | Th-T fluorescence of Aβ42 (sheet Fig. 7a), mean of three wells (reading M84): 0.3714 | Th-T assay plate reading, mean of three wells (Supplementary Fig. 47) (measurement M1): 0.221 | Th-T assay plate reading, mean of three wells (Supplementary Fig. 47) (measurement M2): 0.2228 | Th-T assay plate reading, mean of three wells (Supplementary Fig. 47) (measurement M3): 0.2221 | Th-T assay plate reading, mean of three wells (Supplementary Fig. 47) (measurement M4): 0.222 | Th-T assay plate reading, mean of three wells (Supplementary Fig. 47) (measurement M5): 0.2108 | Th-T assay plate reading, mean of three wells (Supplementary Fig. 47) (measurement M6): 0.2062 | Th-T assay plate reading, mean of three wells (Supplementary Fig. 47) (measurement M7): 0.1997 | Th-T assay plate reading, mean of three wells (Supplementary Fig. 47) (measurement M8): 0.1959 | Th-T assay plate reading, mean of three wells (Supplementary Fig. 47) (measurement M9): 0.193 | Th-T assay plate reading, mean of three wells (Supplementary Fig. 47) (measurement M10): 0.1931 | Th-T assay plate reading, mean of three wells (Supplementary Fig. 47) (measurement M11): 0.1918 | Th-T assay plate reading, mean of three wells (Supplementary Fig. 47) (measurement M12): 0.1925 | Th-T assay plate reading, mean of three wells (Supplementary Fig. 47) (measurement M13): 0.1929 | Th-T assay plate reading, mean of three wells (Supplementary Fig. 47) (measurement M14): 0.1925 | Th-T assay plate reading, mean of three wells (Supplementary Fig. 47) (measurement M15): 0.1938 | Th-T assay plate reading, mean of three wells (Supplementary Fig. 47) (measurement M16): 0.1946 | Th-T fluorescence, mean of three wells (Fig. 7a) (reading M107, compound at 10 (head suffix _10)): 1.6819 | Th-T fluorescence, mean of three wells (Fig. 7a) (reading M107, compound at 20 (head suffix _20)): 0.9322 | Th-T fluorescence, mean of three wells (Fig. 7a) (reading M107, compound at 50 (head suffix _50)): 0.4795 | Th-T fluorescence, mean of three wells (Fig. 7a) (reading M108, compound at 10 (head suffix _10)): 1.643 | Th-T fluorescence, mean of three wells (Fig. 7a) (reading M108, compound at 20 (head suffix _20)): 0.9316 | Th-T fluorescence, mean of three wells (Fig. 7a) (reading M108, compound at 50 (head suffix _50)): 0.4805 | Th-T fluorescence, mean of three wells (Fig. 7a) (reading M109, compound at 10 (head suffix _10)): 1.641 | Th-T fluorescence, mean of three wells (Fig. 7a) (reading M109, compound at 20 (head suffix _20)): 0.9416 | Th-T fluorescence, mean of three wells (Fig. 7a) (reading M109, compound at 50 (head suffix _50)): 0.4841 | Th-T fluorescence, mean of three wells (Fig. 7a) (reading M110, compound at 10 (head suffix _10)): 1.6563 | Th-T fluorescence, mean of three wells (Fig. 7a) (reading M110, compound at 20 (head suffix _20)): 0.9358 | Th-T fluorescence, mean of three wells (Fig. 7a) (reading M110, compound at 50 (head suffix _50)): 0.4823 | Th-T fluorescence, mean of three wells (Fig. 7a) (reading M111, compound at 10 (head suffix _10)): 1.67 | Th-T fluorescence, mean of three wells (Fig. 7a) (reading M111, compound at 20 (head suffix _20)): 0.9311 | Th-T fluorescence, mean of three wells (Fig. 7a) (reading M111, compound at 50 (head suffix _50)): 0.4866 | Th-T fluorescence, mean of three wells (Fig. 7a) (reading M112, compound at 10 (head suffix _10)): 1.658 | Th-T fluorescence, mean of three wells (Fig. 7a) (reading M112, compound at 20 (head suffix _20)): 0.9334 | Th-T fluorescence, mean of three wells (Fig. 7a) (reading M112, compound at 50 (head suffix _50)): 0.4858 | Th-T fluorescence, mean of three wells (Fig. 7a) (reading M113, compound at 10 (head suffix _10)): 1.671 | Th-T fluorescence, mean of three wells (Fig. 7a) (reading M113, compound at 20 (head suffix _20)): 0.9626 | Th-T fluorescence, mean of three wells (Fig. 7a) (reading M113, compound at 50 (head suffix _50)): 0.4847 | Th-T fluorescence, mean of three wells (Fig. 7a) (reading M114, compound at 10 (head suffix _10)): 1.656 | Th-T fluorescence, mean of three wells (Fig. 7a) (reading M114, compound at 20 (head suffix _20)): 0.941 | Th-T fluorescence, mean of three wells (Fig. 7a) (reading M114, compound at 50 (head suffix _50)): 0.488 | Th-T fluorescence, mean of three wells (Fig. 7a) (reading M115, compound at 10 (head suffix _10)): 1.673 | Th-T fluorescence, mean of three wells (Fig. 7a) (reading M115, compound at 20 (head suffix _20)): 0.9605 | Th-T fluorescence, mean of three wells (Fig. 7a) (reading M115, compound at 50 (head suffix _50)): 0.4915 | Th-T fluorescence, mean of three wells (Fig. 7a) (reading M116, compound at 10 (head suffix _10)): 1.71 | Th-T fluorescence, mean of three wells (Fig. 7a) (reading M116, compound at 20 (head suffix _20)): 0.9595 | Th-T fluorescence, mean of three wells (Fig. 7a) (reading M116, compound at 50 (head suffix _50)): 0.4913 | Th-T fluorescence, mean of three wells (Fig. 7a) (reading M117, compound at 10 (head suffix _10)): 1.657 | Th-T fluorescence, mean of three wells (Fig. 7a) (reading M117, compound at 20 (head suffix _20)): 0.9521 | Th-T fluorescence, mean of three wells (Fig. 7a) (reading M117, compound at 50 (head suffix _50)): 0.4909 | Th-T fluorescence, mean of three wells (Fig. 7a) (reading M118, compound at 10 (head suffix _10)): 1.7 | Th-T fluorescence, mean of three wells (Fig. 7a) (reading M118, compound at 20 (head suffix _20)): 0.9478 | Th-T fluorescence, mean of three wells (Fig. 7a) (reading M118, compound at 50 (head suffix _50)): 0.4918 | Th-T fluorescence, mean of three wells (Fig. 7a) (reading M119, compound at 10 (head suffix _10)): 1.686 | Th-T fluorescence, mean of three wells (Fig. 7a) (reading M119, compound at 20 (head suffix _20)): 0.9445 | Th-T fluorescence, mean of three wells (Fig. 7a) (reading M119, compound at 50 (head suffix _50)): 0.4929 | Th-T fluorescence, mean of three wells (Fig. 7a) (reading M120, compound at 10 (head suffix _10)): 1.675 | Th-T fluorescence, mean of three wells (Fig. 7a) (reading M120, compound at 20 (head suffix _20)): 0.9469 | Th-T fluorescence, mean of three wells (Fig. 7a) (reading M120, compound at 50 (head suffix _50)): 0.4937 | Th-T fluorescence, mean of three wells (Fig. 7a) (reading M121, compound at 10 (head suffix _10)): 1.7005 | Th-T fluorescence, mean of three wells (Fig. 7a) (reading M121, compound at 20 (head suffix _20)): 0.9507 | Th-T fluorescence, mean of three wells (Fig. 7a) (reading M121, compound at 50 (head suffix _50)): 0.4951 | Th-T fluorescence, mean of three wells (Fig. 7a) (reading M122, compound at 10 (head suffix _10)): 1.701 | Th-T fluorescence, mean of three wells (Fig. 7a) (reading M122, compound at 20 (head suffix _20)): 0.9556 | Th-T fluorescence, mean of three wells (Fig. 7a) (reading M122, compound at 50 (head suffix _50)): 0.493 | Th-T fluorescence, mean of three wells (Fig. 7a) (reading M123, compound at 10 (head suffix _10)): 1.651 | Th-T fluorescence, mean of three wells (Fig. 7a) (reading M123, compound at 20 (head suffix _20)): 0.9514 | Th-T fluorescence, mean of three wells (Fig. 7a) (reading M123, compound at 50 (head suffix _50)): 0.4951 | Th-T fluorescence, mean of three wells (Fig. 7a) (reading M124, compound at 10 (head suffix _10)): 1.705 | Th-T fluorescence, mean of three wells (Fig. 7a) (reading M124, compound at 20 (head suffix _20)): 0.9577 | Th-T fluorescence, mean of three wells (Fig. 7a) (reading M124, compound at 50 (head suffix _50)): 0.4977 | Th-T fluorescence, mean of three wells (Fig. 7a) (reading M125, compound at 10 (head suffix _10)): 1.692 | Th-T fluorescence, mean of three wells (Fig. 7a) (reading M125, compound at 20 (head suffix _20)): 0.9599 | Th-T fluorescence, mean of three wells (Fig. 7a) (reading M125, compound at 50 (head suffix _50)): 0.4931 | Th-T fluorescence, mean of three wells (Fig. 7a) (reading M126, compound at 10 (head suffix _10)): 1.704 | Th-T fluorescence, mean of three wells (Fig. 7a) (reading M126, compound at 20 (head suffix _20)): 0.9491 | Th-T fluorescence, mean of three wells (Fig. 7a) (reading M126, compound at 50 (head suffix _50)): 0.4978 | Th-T fluorescence, mean of three wells (Fig. 7a) (reading M127, compound at 10 (head suffix _10)): 1.72 | Th-T fluorescence, mean of three wells (Fig. 7a) (reading M127, compound at 20 (head suffix _20)): 0.9533 | Th-T fluorescence, mean of three wells (Fig. 7a) (reading M127, compound at 50 (head suffix _50)): 0.4965 | Th-T fluorescence, mean of three wells (Fig. 7a) (reading M128, compound at 10 (head suffix _10)): 1.676 | Th-T fluorescence, mean of three wells (Fig. 7a) (reading M128, compound at 20 (head suffix _20)): 0.9486 | Th-T fluorescence, mean of three wells (Fig. 7a) (reading M128, compound at 50 (head suffix _50)): 0.4971 | Th-T fluorescence, mean of three wells (time-course reading M97): 1.027 | Th-T fluorescence, mean of three wells (time-course reading M98): 1.0353 | Th-T fluorescence, mean of three wells (time-course reading M99): 1.027 | Th-T fluorescence, mean of three wells (time-course reading M100): 1.023 | Th-T fluorescence, mean of three wells (time-course reading M101): 1.038 | Th-T fluorescence, mean of three wells (time-course reading M102): 1.048 | Th-T fluorescence, mean of three wells (time-course reading M103): 1.038 | Th-T fluorescence, mean of three wells (time-course reading M104): 1.045 | Th-T fluorescence, mean of three wells (time-course reading M105): 1.028 | Th-T fluorescence, mean of three wells (time-course reading M106): 1.044 | Th-T fluorescence, mean of three wells (time-course reading M107): 1.045 | Th-T fluorescence, mean of three wells (time-course reading M108): 1.036 | Th-T fluorescence, mean of three wells (time-course reading M109): 1.034 | Th-T fluorescence, mean of three wells (time-course reading M110): 1.043 | Th-T fluorescence, mean of three wells (time-course reading M111): 1.041 | Th-T fluorescence, mean of three wells (time-course reading M112): 1.036 | Th-T fluorescence, mean of three wells (time-course reading M113): 1.022 | Th-T fluorescence, mean of three wells (time-course reading M114): 1.039 | Th-T fluorescence, mean of three wells (time-course reading M115): 1.052 | Th-T fluorescence, mean of three wells (time-course reading M116): 1.042
